Laboratory results reported in PMC8831520, “Small molecule SWELL1 complex induction improves glycemic control and nonalcoholic fatty liver disease in murine Type 2 diabetes” (Nature Communications, 2022).

Tested on: T1, SWELL1 protein in 3T3-F442A adipocytes
T1 construct: host or cells: 3T3-F442A preadipocytes and differentiated adipocytes (wild type)
Assay: SWELL1 protein western blot in adipocytes
Format: cell-based, murine
Details: for SWELL1 protein level relative to vehicle-treated controls: 10 and 1 μM, 4 days, then 6 h serum starving
Procedure: In the case of 3T3-F442A adipocytes, the WT and KO cells were treated with either vehicle (DMSO), 1 or 10 µM SN-40X (after 7–11 days of differentiation) for 96 h and then stimulated with 0 and 10 nM insulin/serum-containing media with vehicle (DMSO) or SN-40X for 15 min for SWELL1 detection. […] To simulate glucolipotoxicity, 8 mM sodium palmitate was dissolved in 18.4% fatty-acid free BSA at 37 °C in DMEM medium with 25 mM glucose to obtain a conjugation ratio of 1:3 palmitate:BSA[80].
Adipocytes were washed twice in ice-cold phosphate buffer saline and lysed in RIPA buffer (150 mM NaCl, 20 mM HEPES, 1% NP-40, 5 mM EDTA, pH 7.4) with proteinase/phosphatase inhibitors (Roche). The cell lysate was further sonicated in 10 s cycle intervals 2–3 times and centrifuged at 18,407×g for 30 min at 4 °C and repeated one more time to remove the excess fat. The supernatant was collected and further estimated for protein concentration using a DC protein assay kit (Bio-Rad). Fat and liver tissues were homogenized and suspended in RIPA buffer with inhibitors and further processed in a similar fashion as described above. HUVECs were also prepared in a similar fashion except the lysates were spun only once to remove the cells debris to obtain the clear supernatant. For islets, either human or mouse islets were washed twice with phosphate buffer saline (PBS) and lysed using RIPA buffer containing protease and phosphatase inhibitors. The lysate was further clarified by freezing in liquid nitrogen for about 10 s for three cycles. The supernatant was collected from the whole lysate centrifuged at 16,260×g for 20 min at 4 °C. […] For soleus muscle, the tissue was homogenized in a Bullet Blender homogenizer (Speed-9, Time-3 mins) in 8 volumes of ice-cold muscle homogenization buffer (50 mM Tris, 25 mM NaCl, 0.2% Nonidet P-40, 5 mM EGTA, 2.5 mM EDTA, 20 mM NaF, 20 mM Na4P2O7·10H2O, 2 mM Na3VO4, pH 7.4) supplemented with protease/phosphatase inhibitor (Roche). The homogenized lysate was centrifuged two times at 18,500×g for 20 min at 4 °C and supernatant was collected for protein estimation. Protein samples were further prepared by boiling in 2X or 4X Laemmli buffer. Approximately 10–60 µg of total protein was loaded in 4–15% gradient gel (Bio-Rad) for separation and protein transfer was carried out onto the PVDF membranes (Bio-Rad). Membranes were blocked in 5% BSA (or 5% milk for SWELL1) in TBST buffer (0.2 M Tris, 1.37 M NaCl, 0.2% Tween-20, pH 7.4) for 1 h and incubated with appropriate primary antibodies (5% BSA or milk) overnight at 4 °C. […] The images were further analyzed for band intensities using ImageJ software. […]

Compound: CCCCC1(C2CCCC2)Cc2cc(OCC(=O)O)c(Cl)c(Cl)c2C1=O (stereo not drawn) [Inactive 1, 2-((2-butyl-6,7-dichloro-2-cyclopentyl-1-oxo-2,3-dihydro-1H-inden-5-yl)oxy)acetic acid]
- SWELL1 protein level relative to vehicle-treated controls: did not significantly increase

Compound: CCCCC1(C2CCCC2)Cc2cc(OCCCC(=O)O)c(Cl)c(Cl)c2C1=O (stereo not drawn) [SN-401, 4-((2-butyl-6,7-dichloro-2-cyclopentyl-1-oxo-2,3-dihydro-1H-inden-5-yl)oxy)butanoic acid]
- SWELL1 protein expression (3T3-F442A adipocytes, 10 µM, 96 h): 1.5 fold control expression

Compound: CCCCC1(C2CCCC2)Cc2cc(OCCCCCC(=O)O)c(Cl)c(Cl)c2C1=O (stereo not drawn) [SN-406, 6-((2-butyl-6,7-dichloro-2-cyclopentyl-1-oxo-2,3-dihydro-1H-inden-5-yl)oxy)hexanoic acid]
- SWELL1 protein level relative to vehicle-treated controls: 1.5–2.1 fold
